Experimental data: paper PMC3049593 (British Journal of Cancer, 2011)

Key:
B16F0 lung metastases = assay: B16F0 experimental lung metastasis model; type: in vivo, C57Bl6 mice; details: 20 mg kg^−1
Experimental: In the orthotopic Hep3b2.1-7 human liver cancer model, treatment of mice (n=10) began 14 days after inoculation of 2.5 × 10^6 cells. […] To initiate tumour xenografts, MDA-MB-231, PC3, Cal27 and HepG2 cells were injected s.c. into nude mice (n=8) at 4, 5, 2 and 2 × 10^7 cells ml^−1, respectively. […] In the B16F0 lung metastasis model, 2 × 10^5 cells were injected via the tail vein of C57Bl6 mice (n=8). […] Surface lung macrometastases were counted for each group (n=9) upon study termination. In the intrasplenic HT-29 xenograft model, 1 × 10^6 cells in 100 μl were injected into the spleen. […] Solid tumours were measured in two dimensions (length and width) and the tumour volume (cm^3) was calculated using the equation: V=length × width^2 × π/6. The anti-tumour activity was expressed as percent tumour growth inhibition (%TGI). Further details are available in Supplementary Methods. […]
antibody. […]
(§1) staining. For quantification, three independent visual fields (20x magnification) were chosen and positive stained spots or vessels with identifiable lumen were counted.
(§2) Angiogenesis inhibition and induction were calculated using the equations: […]
regimen both before and after tumour cell inoculation (days -6, -3, 0, +3, +6) or only after tumour cell inoculation (days 0, +3, +6). B16 cell (2x105) were inoculated via tail vein injections and mice were culled and assessed for lung metastases on day 12. […]

[1] = tested on: FGF2-induced vascularisation of AngioSponge; assay: AngioSponge in vivo angiogenesis model (CD31/PECAM-1 staining); parameters: species or system mice; details: s.c. daily or twice-weekly, 10 days
Experimental: Angiogenesis in vivo was evaluated using the Angiosponge model in which subcutaneously implanted, agarose-captured FGF2 gelfoam sterile sponges (Pfizer, West Ryde, Australia) induces vascularisation over a 10-day period responsive to angiogenesis inhibition as determined by the number of vessels with identifiable lumen that stained positive for CD31/PECAM-1, an antigen present specifically on endothelial cells ([McCarty et al, 2002]). PG545 was administered s.c. on the flank distal to the AngioSponge implant. This method was also used to examine five medium-sized primary tumours from each group of Lewis Lung Carcinoma (LL/2)-bearing mice.
Cell lines, cell culture, reagents and compounds
Tumour cell lines were cultured in RPMI1640 or DMEM cell culture medium (Invitrogen, Mt Waverley, Australia), 10% foetal bovine serum (Invitrogen or Hyclone/Quantum Scientific), 100 IU/mL penicillin (Invitrogen), 100 µ g/mL streptomycin (Invitrogen or Sigma-Aldrich, Castle Hill, Australia). […]
as §1, §2

Compound: CC(C)CCC[C@@H](C)[C@H]1CCC2C3CCC4C[C@@H](O[C@@H]5O[C@H](COS(=O)(=O)[O-])[C@@H](O[C@H]6O[C@H](COS(=O)(=O)[O-])[C@@H](O[C@H]7O[C@H](COS(=O)(=O)[O-])[C@@H](O[C@H]8O[C@H](COS(=O)(=O)[O-])[C@@H](OS(=O)(=O)[O-])[C@H](OS(=O)(=O)[O-])[C@H]8OS(=O)(=O)[O-])[C@H](OS(=O)(=O)[O-])[C@H]7OS(=O)(=O)[O-])[C@H](OS(=O)(=O)[O-])[C@H]6OS(=O)(=O)[O-])[C@H](OS(=O)(=O)[O-])[C@H]5OS(=O)(=O)[O-])CC[C@]4(C)C3CC[C@@]21C.[Na+].[Na+].[Na+].[Na+].[Na+].[Na+].[Na+].[Na+].[Na+].[Na+].[Na+].[Na+].[Na+] (stereo partly drawn) [PG545]
- TGI (lung metastases) (B16F0 lung metastases; days 0, +3, +6): 62%
- TGI (lung metastases) (B16F0 lung metastases; days −6, −3, 0, +3, +6): 99%
- inhibition of CD31 staining [1]: Significant inhibition of CD31 staining
